From patent US20230108687A1, “GENE EDITING METHODS FOR TREATING SPINAL MUSCULAR ATROPHY” (The Broad Institute, Inc., priority 2020, published 2023)

B1: 175-307 deletion: SpCas9 mutation relative to SEQ ID NO: 5 (protein)
chain: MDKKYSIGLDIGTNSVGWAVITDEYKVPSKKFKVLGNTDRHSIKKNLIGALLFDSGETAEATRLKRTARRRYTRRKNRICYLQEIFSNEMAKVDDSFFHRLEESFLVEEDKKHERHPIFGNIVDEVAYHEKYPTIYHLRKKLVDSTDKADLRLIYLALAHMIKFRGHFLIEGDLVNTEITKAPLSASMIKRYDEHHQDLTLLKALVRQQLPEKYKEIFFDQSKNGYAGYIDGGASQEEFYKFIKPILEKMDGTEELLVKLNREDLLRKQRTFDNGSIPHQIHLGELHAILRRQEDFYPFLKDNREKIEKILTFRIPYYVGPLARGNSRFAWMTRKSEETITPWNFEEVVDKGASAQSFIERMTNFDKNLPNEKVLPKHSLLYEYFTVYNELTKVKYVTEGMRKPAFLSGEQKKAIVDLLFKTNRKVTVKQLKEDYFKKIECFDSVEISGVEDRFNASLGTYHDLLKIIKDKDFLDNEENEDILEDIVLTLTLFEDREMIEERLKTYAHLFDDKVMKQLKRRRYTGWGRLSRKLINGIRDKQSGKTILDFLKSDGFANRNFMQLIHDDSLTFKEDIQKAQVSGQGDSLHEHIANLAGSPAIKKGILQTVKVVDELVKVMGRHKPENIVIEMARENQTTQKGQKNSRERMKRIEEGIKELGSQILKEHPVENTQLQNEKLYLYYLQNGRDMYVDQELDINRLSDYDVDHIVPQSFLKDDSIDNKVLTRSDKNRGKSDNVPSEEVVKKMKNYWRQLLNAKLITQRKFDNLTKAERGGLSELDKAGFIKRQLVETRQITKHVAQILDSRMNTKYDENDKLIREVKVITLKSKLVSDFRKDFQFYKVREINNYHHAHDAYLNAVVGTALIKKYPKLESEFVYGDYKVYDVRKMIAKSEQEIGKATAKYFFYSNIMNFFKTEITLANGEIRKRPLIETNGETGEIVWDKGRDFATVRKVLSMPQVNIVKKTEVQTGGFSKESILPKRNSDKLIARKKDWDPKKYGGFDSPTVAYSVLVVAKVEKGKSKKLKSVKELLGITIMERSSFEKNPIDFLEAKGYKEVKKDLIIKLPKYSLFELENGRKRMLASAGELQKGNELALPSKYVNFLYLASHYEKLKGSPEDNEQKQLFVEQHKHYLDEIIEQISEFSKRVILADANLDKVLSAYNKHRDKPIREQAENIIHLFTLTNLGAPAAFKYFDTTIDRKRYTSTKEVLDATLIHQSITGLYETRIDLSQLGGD
modifications: Streptococcus pyogenes

Columns and labels:
[1] = system: human SMN2 transgene exon 7 C840T (C6T) in SMA mESCs; assay: Adenine base editing of SMN2 C840T (C6T) after transfection of SMA mESCs; assay type: cell-based, mouse; conditions: ABE8 fusions, FIG. 4
DNA = conditions: SpCas9 mutation relative to SEQ ID NO: 5; UniProtKB Q99ZW2 entry; cited from earlier work

Molecule	editing of C840T [1]	decreased DNA cleavage (DNA)
iSpyMac: iSpyMac-variant ABE8e adenine base editor; SEQ ID NO: 476	edited C840T with high efficiency	
B1		About 50% decreased DNA cleavage
